The results in this text go back to article doi:10.1101/2024.10.27.620470v1 (biorxiv, 2024).

SMILES strings stand for the structures.

The experiment deals with G3BP1NTF-2-GFP (Homo sapiens, UniProt Q13283). The experiment can be described thus: fluorescence plate PPI inhibition assay. Format: biochemical.
Sequence of G3BP1NTF-2-GFP (Q13283 1-139): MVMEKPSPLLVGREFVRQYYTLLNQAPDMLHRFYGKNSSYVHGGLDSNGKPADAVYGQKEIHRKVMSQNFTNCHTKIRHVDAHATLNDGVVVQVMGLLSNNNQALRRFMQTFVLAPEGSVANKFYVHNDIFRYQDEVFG
Molecule `CN1C[C@H](C(=O)N[C@]2(C)O[C@@]3(O)[C@@H]4CCCN4C(=O)[C@H](Cc4ccccc4)N3C2=O)C[C@@H]2c3cccc4[nH]cc(c34)C[C@H]21` [Dihydroergotamine] yielded an IC50 of 13.2 ± 5.8 µM.
The figure for `O=C1NCN(c2ccccc2)C12CCN(CCCC(c1ccc(F)cc1)c1ccc(F)cc1)CC2` [Fluspirilene] is 10.5 ± 1.8 µM; for `CNC(=O)c1c(F)cccc1Nc1nc(Nc2cc3c(cc2OC)CCN3C(=O)CN(C)C)nc2[nH]ccc12` [GSK1838705A] it is 14.5 ± 4.9 µM.
The figure for `COc1ccc(Br)cc1S(=O)(=O)NC(=O)/C=C/c1ccccc1Cc1ccc2ccccc2c1` [L-798106] is 11.6 ± 4.5 µM; for `CC[C@H](NC(=O)c1c(C)c(-c2ccccc2)nc2ccccc12)c1ccccc1` [SB_222200] it is 13 ± 0.6 µM.
